# Source: patent US11980633B2, “Method for treating cancer using a combination of DNA-damaging agents and DNA-PK inhibitors” (Vertex Pharmaceuticals Incorporated, priority 2016, dated 2024)
# System: pKAP1 and pH2AX levels in DU4475 breast cancer cells
# Assay: pKAP1 and pH2AX immunoblot, Compound B-2 and doxorubicin in DU4475 breast cancer cells
# Format: cell-based, human
# Details: for pH2AX level, max enhancement vs doxorubicin alone: at 12 h
# Experimental: Materials and Methods. The human cancer cell lines A549 (CCL-185), DU4475 (HTB-123), MDA-MB-436 (HTB-130), and MDA-MB-468 (HTB-132) were obtained from American Type Culture Collection (ATCC; Manassas, VA). A 10 mM stock solution of Compound B-1 or Compound B-2 was prepared in DMSO and stored at −20° C. Etoposide and doxorubicin were purchased from Sigma-Aldrich (St. Louis, MO).
# The A549 human lung cancer cell line was purchased from ATCC and was cultured in DMEM supplemented with 10% fetal bovine serum, 1× non-essential amino acids and 1× Penicillin/Streptomycin (complete medium). Cells were maintained at a subconfluent state by passaging every 2-3 days. Human breast cancer cells lines DU4475, MDA-MB-436, and MDA-MB-468 were purchased from ATCC and cultured in DMEM supplemented with 10% fetal bovine serum, 1× Glutamax and Penicillin/Streptomycin. Cells were maintained at a subconfluent state by passaging every 2-3 days.
# Compound B-1 and Compound B-2 used in these experiments were not prepared as a co-crystals.
# Breast cancer cell lines grown in 24-well (Costar, catalog #3526) or 6-well (Costar, catalog #3516) tissue culture plates to 70-80% confluence were pre-incubated with 1 μM Compound B-2 or DMSO for 15 min. Doxorubicin was added to a final concentration of either 100 nM or 500 nM from a 1000× stock prepared in DMSO. Cells were then incubated for the indicated amount of time and harvested for analysis.
# Cell Lysis and Western Blot Analysis. Cells treated with Compound B-1 or Compound B-2 in combination with chemotherapeutic agents were washed once with ice-cold PBS and then dissolved in 150 μL/well 2×SDS-PAGE sample buffer, transferred to microfuge tubes, and heated in a 105° C. heat block for 5 min for immunoblotting. A 15-μL aliquot of each SDS-PAGE sample was loaded onto 12-lane 4 20% Tris-Glycine gels and the gels were run at 125v constant voltage until the dye front reached the bottom (approximately 2 h). Following electrophoresis, separated proteins in the gels were transferred to a nitrocellulose membrane. Transfer was carried out for 2 h at 1.5 A constant current in a cold room using a Hoefer transfer apparatus (Model TE42 or TE62, Hoefer Inc, Holliston, MA) according to manufacturer's instructions. Following transfer, nitrocellulose membranes were incubated with blocking buffer for 1 h at room temperature. The nitrocellulose membranes were cut and the bottom halves were incubated overnight with 2 primary antibodies, anti-pH2AX (1/1000) and anti-total H2AX (1/1000). After washing, the appropriate fluorescently labeled secondary antibodies were added to the membranes and then imaged with pH2AX on the 800 (green) channel and total H2AX on the 700 (red) channel. The top halves of the membranes were probed sequentially for pKAP1 (1/1000) on the 700 (red) channel and then probed for total KAP1 (1/1000) and GAPDH (1/2500) on the 800 (green) channel. Image acquisition was conducted using an Odyssey fluorescent imaging system (Li-Cor Biosciences; Lincoln, NE).
# Compound B-2 and doxorubicin combination in breast cancer cell lines in culture. To examine the effect of DNA-PK inhibition on pKAP1 and pH2AX in vitro, DU4475 breast cancer cells were pre-incubated with 1 μM Compound B-2 for 15 min, followed by addition of 100 nM or 500 nM doxorubicin. Cells were harvested at various time points following doxorubicin addition and analyzed for levels of pKAP1 and pH2AX by immunoblotting.
smiles,measurement,setting,value
[2H]c1nc(C)nc([2H])c1-c1cc(NC[C@@H](C)c2cccc3c(C(=O)NC)ccnc23)ncn1 [Compound B-2],"pKAP1 level, max enhancement vs doxorubicin alone","1 μM Compound B-2 + 100 nM doxorubicin, at 12-24 h",37-42 fold
same,"pH2AX level, max enhancement vs doxorubicin alone",1 μM Compound B-2 + 100 nM doxorubicin,2 fold
same,"pKAP1 level, max enhancement vs doxorubicin alone","1 μM Compound B-2 + 500 nM doxorubicin, at 8 h",19 fold
same,"pH2AX level, max enhancement vs doxorubicin alone",1 μM Compound B-2 + 500 nM doxorubicin,1.6 fold
